Results taken from PubChem BioAssay AID296 (DTP/NCI, 2004).
Where “and” joins values, the source holds several entries; their conditions need not be identical. Equal entries are not always repeated. Inconclusive results are not listed.

System: MX-1 breast xenograft, nude mice, tumor weight T/C
Assay: NCI In Vivo Anticancer Drug Screen. Data for tumor model Human Mammary Carcinoma MX-1 Xenograft (intrarenal inoculation) in NU/NU Swiss (nude) mice
Conditions: endpoint: mean tumor weight change, higher = larger tumour
How it was run: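 Compound dosed to mice with transplantable tumor; vehicle group as control. Endpoint survival or tumour size, reported as T/C.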

[1] = dose: 300.0 mg/kg/injection, schedule: Q04DX003 (sc), vehicle: saline with Tween-80
[2] = dose: 600.0 mg/kg/injection, schedule: Q04DX003 (sc), vehicle: saline with Tween-80
[3] = dose: 1200.0 mg/kg/injection, schedule: Q04DX003 (sc), vehicle: saline with Tween-80
[4] = dose: 2400.0 mg/kg/injection, schedule: Q04DX003 (sc), vehicle: saline with Tween-80
[5] = dose: 12.5 mg/kg/injection, schedule: Q01DX010 (sc), vehicle: saline with Tween-80
[6] = dose: 12.5 mg/kg/injection, schedule: Q01DX010 (sc), vehicle: Klucel (hydroxypropylcellulose) (HPC)
[7] = dose: 200.0 mg/kg/injection, schedule: Q04DX003 (sc), vehicle: saline with Tween-80
[8] = dose: 800.0 mg/kg/injection, schedule: Q04DX003 (sc), vehicle: saline with Tween-80

OCCN1CCN(CC/C=C2/c3ccccc3Sc3ccc(C(F)(F)F)cc32)CC1
T/C (dose: 30.0 mg/kg/injection, schedule: Q04DX003 (sc), vehicle: saline): 65 % of control | T/C (dose: 60.0 mg/kg/injection, schedule: Q04DX003 (sc), vehicle: saline): 43 % of control | T/C (dose: 120.0 mg/kg/injection, schedule: Q04DX003 (sc), vehicle: saline): 29 % of control and 43 % of control | T/C (dose: 240.0 mg/kg/injection, schedule: Q04DX003 (sc), vehicle: saline): 17 % of control and 21 % of control

CCCCCCCCCCCCCCC/C([O-])=N/[N+](C)(C)CC(C)O (stereo not drawn)
T/C (dose: 200.0 mg/kg/injection, schedule: Q04DX003 (sc), vehicle: Klucel (hydroxypropylcellulose) (HPC)): 95 % of control | T/C (dose: 800.0 mg/kg/injection, schedule: Q04DX003 (sc), vehicle: Klucel (hydroxypropylcellulose) (HPC)): 100 % of control | T/C (dose: 1600.0 mg/kg/injection, schedule: Q04DX003 (sc), vehicle: Klucel (hydroxypropylcellulose) (HPC)): 91 % of control | T/C (dose: 2400.0 mg/kg/injection, schedule: Q04DX003 (sc), vehicle: Klucel (hydroxypropylcellulose) (HPC)): 63 % of control

CC[C@H](CC[C@@H](C)C1CC[C@H]2[C@@H]3CC=C4C[C@@H](OP(=O)(N5CC5)N5CC5)CC[C@]4(C)[C@H]3CC[C@]12C)C(C)C (stereo partly drawn)
T/C [1]: 71 % of control | T/C [2]: 113 % of control | T/C [3]: 65 % of control | T/C [4]: 62 % of control

C1CNCOC1
T/C (dose: 150.0 mg/kg/injection, schedule: Q04DX003 (sc), vehicle: saline): 100 % of control | T/C (dose: 300.0 mg/kg/injection, schedule: Q04DX003 (sc), vehicle: saline): 84 % of control

Cc1cc2nc3[nH]c4ccccc4c3nc2cc1C
T/C (dose: 100.0 mg/kg/injection, schedule: Q01DX010 (sc), vehicle: saline): 92 % of control | T/C (dose: 200.0 mg/kg/injection, schedule: Q01DX010 (sc), vehicle: saline): 103 % of control | T/C (dose: 400.0 mg/kg/injection, schedule: Q01DX010 (sc), vehicle: saline): 63 % of control | T/C (dose: 800.0 mg/kg/injection, schedule: Q01DX010 (sc), vehicle: saline): 69 % of control

CCCCCCCCCCCC(=O)NC1CC(O[C@H]2C[C@](O)(C(=O)CO)Cc3c(O)c4c(c(O)c32)C(=O)c2c(OC)cccc2C4=O)OC(C)C1O (stereo partly drawn)
T/C (dose: 100.0 mg/kg/injection, schedule: Q01DX010 (sc), vehicle: water): 59 % of control | T/C (dose: 200.0 mg/kg/injection, schedule: Q01DX010 (sc), vehicle: water): 97 % of control | T/C (dose: 400.0 mg/kg/injection, schedule: Q01DX010 (sc), vehicle: water): 53 % of control

CCCCC1CCCCCCc2[nH]c(/C=C3\N=C(c4ccc[nH]4)C=C3OC)cc21 (stereo not drawn)
T/C (dose: 4.0 mg/kg/injection, schedule: Q04DX003 (sc), vehicle: saline with Tween-80): 82 % of control | T/C (dose: 8.0 mg/kg/injection, schedule: Q04DX003 (sc), vehicle: saline with Tween-80): 107 % of control | T/C (dose: 16.0 mg/kg/injection, schedule: Q04DX003 (sc), vehicle: saline with Tween-80): 105 % of control | T/C (dose: 32.0 mg/kg/injection, schedule: Q04DX003 (sc), vehicle: saline with Tween-80): 80 % of control

Cc1c2c(ccc3ccccc32)c[n+]2ccccc12
T/C (dose: 3.13 mg/kg/injection, schedule: Q01DX010 (sc), vehicle: saline): 101 % of control | T/C (dose: 6.25 mg/kg/injection, schedule: Q01DX010 (sc), vehicle: saline): 82 % of control | T/C (dose: 12.5 mg/kg/injection, schedule: Q01DX010 (sc), vehicle: saline): 25 % of control

CCNC(=O)OCc1c(COC(=O)NCC)c(-c2ccc(Cl)c(Cl)c2)n2c1CCC2
T/C [5]: 46 % of control | T/C (dose: 25.0 mg/kg/injection, schedule: Q01DX010 (sc), vehicle: saline with Tween-80): 10 % of control | T/C (dose: 50.0 mg/kg/injection, schedule: Q01DX010 (sc), vehicle: saline with Tween-80): 3 % of control and 8 % of control | T/C (dose: 100.0 mg/kg/injection, schedule: Q01DX010 (sc), vehicle: saline with Tween-80): 4 % of control

C=C1C(=O)OCC2C(C(=O)O)=CC3C(C)C(C)=CC123 (stereo not drawn)
T/C (dose: 6.25 mg/kg/injection, schedule: Q01DX010 (sc), vehicle: Klucel (hydroxypropylcellulose) (HPC)): 78 % of control | T/C [6]: 113 % of control

O=NN(CCCl)C(=O)NC1CCC(=O)NC1=O (stereo not drawn)
T/C (dose: 1.56 mg/kg/injection, schedule: Q01DX010 (sc), vehicle: saline with Tween-80): 100 % of control | T/C (dose: 3.13 mg/kg/injection, schedule: Q01DX010 (sc), vehicle: saline with Tween-80): 69 % of control and 72 % of control | T/C (dose: 6.25 mg/kg/injection, schedule: Q01DX010 (sc), vehicle: saline with Tween-80): 2 % of control and 15 % of control and 25 % of control | T/C [5]: -87 % of control and -84 % of control

C#C[C@]1(O)CC[C@H]2[C@@H]3CCc4cc(O)ccc4[C@H]3CC[C@@]21C
T/C (dose: 150.0 mg/kg/injection, schedule: Q04DX003 (sc), vehicle: Klucel (hydroxypropylcellulose) (HPC)): 150 % of control | T/C (dose: 300.0 mg/kg/injection, schedule: Q04DX003 (sc), vehicle: Klucel (hydroxypropylcellulose) (HPC)): 94 % of control | T/C (dose: 600.0 mg/kg/injection, schedule: Q04DX003 (sc), vehicle: Klucel (hydroxypropylcellulose) (HPC)): 80 % of control | T/C (dose: 1200.0 mg/kg/injection, schedule: Q04DX003 (sc), vehicle: Klucel (hydroxypropylcellulose) (HPC)): 122 % of control

O=S(=O)(c1ccccc1)N1CN2CCN(C2)C1
T/C [7]: 58 % of control | T/C (dose: 400.0 mg/kg/injection, schedule: Q04DX003 (sc), vehicle: saline with Tween-80): 81 % of control | T/C [8]: 65 % of control | T/C (dose: 1600.0 mg/kg/injection, schedule: Q04DX003 (sc), vehicle: saline with Tween-80): 48 % of control

C[Si](C)(CCl)N[Si](C)(C)CCl
T/C [1]: 50 % of control | T/C [2]: 35 % of control

Cc1ccc(N)c(N)c1
T/C [7]: 87 % of control | T/C [8]: 112 % of control

O=C(O)CCCCCCCC(=O)O
T/C (dose: 300.0 mg/kg/injection, schedule: Q04DX003 (sc), vehicle: distilled water + Tween-80): 151 % of control | T/C (dose: 600.0 mg/kg/injection, schedule: Q04DX003 (sc), vehicle: distilled water + Tween-80): 150 % of control | T/C (dose: 1200.0 mg/kg/injection, schedule: Q04DX003 (sc), vehicle: distilled water + Tween-80): 80 % of control

COC(=O)C[C@](O)(CCC(C)(C)O)C(=O)O[C@@H]1C(OC)=C[C@]23CCCN2CCc2cc4c(cc2[C@H]13)OCO4
T/C (dose: 0.15 mg/kg/injection, schedule: Q04DX003 (sc), vehicle: saline): 123 % of control | T/C (dose: 0.31 mg/kg/injection, schedule: Q04DX003 (sc), vehicle: saline): 93 % of control | T/C (dose: 0.63 mg/kg/injection, schedule: Q04DX003 (sc), vehicle: saline): 119 % of control | T/C (dose: 1.25 mg/kg/injection, schedule: Q04DX003 (sc), vehicle: saline): 97 % of control

S=c1nc[nH]c2nc[nH]c12
T/C (dose: 5.25 mg/kg/injection, schedule: Q01DX010 (sc), vehicle: Klucel (hydroxypropylcellulose) (HPC)): 118 % of control | T/C [6]: 72 % of control and 79 % of control

COc1ccc(C(=O)c2no[n+]([O-])c2C(=O)c2ccc(OC)cc2)cc1
T/C [1]: 121 % of control | T/C [2]: 91 % of control | T/C [3]: 66 % of control | T/C [4]: 88 % of control

COc1ccc2c(c1[N+](=O)[O-])CC[C@@H]1[C@@H]2CC[C@]2(C)C(=O)CC[C@@H]12
T/C (dose: 150.0 mg/kg/injection, schedule: Q04DX003 (ip), vehicle: saline with Tween-80): 90 % of control | T/C (dose: 300.0 mg/kg/injection, schedule: Q04DX003 (ip), vehicle: saline with Tween-80): 111 % of control | T/C (dose: 1200.0 mg/kg/injection, schedule: Q04DX003 (ip), vehicle: saline with Tween-80): 102 % of control

CCCC(=O)OCc1cc(=O)n(C)c2c3c4c(cc12)c(C)cc(=O)n4CO3
T/C [6]: 170 % of control | T/C (dose: 25.0 mg/kg/injection, schedule: Q01DX010 (sc), vehicle: Klucel (hydroxypropylcellulose) (HPC)): 67 % of control | T/C (dose: 50.0 mg/kg/injection, schedule: Q01DX010 (sc), vehicle: Klucel (hydroxypropylcellulose) (HPC)): 20 % of control | T/C (dose: 100.0 mg/kg/injection, schedule: Q01DX010 (sc), vehicle: Klucel (hydroxypropylcellulose) (HPC)): 15 % of control | T/C (dose: 200.0 mg/kg/injection, schedule: Q01DX010 (sc), vehicle: Klucel (hydroxypropylcellulose) (HPC)): 87 % of control | T/C (dose: 400.0 mg/kg/injection, schedule: Q01DX010 (sc), vehicle: Klucel (hydroxypropylcellulose) (HPC)): 91 % of control | T/C (dose: 800.0 mg/kg/injection, schedule: Q01DX010 (sc), vehicle: Klucel (hydroxypropylcellulose) (HPC)): 72 % of control
